Assay results taken from PubChem BioAssay (NCI).
Values joined by “and” are separate entries in the source; they are usually repeats but may differ in a detail not shown here. Equal values may be shown once.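 All cell lines were grown in 96-well plates and treated with compound for 48 hours. Abbreviation: GI50, concentration required for 50% inhibition of growth. At the TGI there is no net growth.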

Columns and labels:
Assay in all cases: NCI-60 cell line screen, 48 h
[1] = system: A498 renal
[2] = system: BT-549 breast
[3] = system: EKVX NSCLC
[4] = system: HCT-116 colon
[5] = system: M14 melanoma
[6] = system: RXF 393 renal
[7] = system: SNB-75 CNS
[8] = system: UO-31 renal
[9] = system: KM12 colon
[10] = system: MCF7 breast

SMILES | GI50 [1] [µM] | GI50 [2] [µM] | TGI [3] | TGI [4] | GI50 [5] [nM] | TGI [5] [µM] | GI50 [6] | TGI [6] [µM] | TGI [7] [µM] | TGI [8] | TGI [1] | TGI [2] | GI50 [3] [µM] | GI50 [4] [µM] | GI50 [9] [µM] | TGI [9] | GI50 [7] [µM] | GI50 [8] [µM] | TGI [10] | GI50 [10] [µM]
CC1OC(O[C@@H]2C=C3CC[C@@H]4[C@H](CC[C@]5(C)[C@@H](c6ccc(=O)oc6)CC[C@]45O)[C@@]3(C)CC2)C(O)C(O)C1O (stereo partly specified) | 0.00127 | 0.00615 | 0.003 µM and 0.00108 µM | 0.0017 µM | 0.0885 | 0.0124 | 0.00112 µM and 0.00894 µM | 0.00199 | 0.003 | 0.00205 µM | – | – | – | – | – | – | – | – | – | –
CC/C(=C/c1ccc(OC)cc1)[N+](=O)[O-] | 1.87 | 2.42 | 27.2 µM | 3.1 µM | 1850 | 4.18 | 1.85 µM | 3.39 | 15 | 3.04 µM | 9.09 µM | 6.42 µM | 14.2 | 1.61 | 2.24 | 5.47 µM | 2.83 | 1.42 | – | –
COc1cc([C@@H]2c3cc4c(cc3[C@@H](OC3OC5COC(C)OC5C(O)C3O)[C@H]3COC(=O)[C@H]23)OCO4)cc(OC)c1O (stereo partly specified) | – | 1.83 | 149 µM and 500 µM and 183 µM | 25.8 µM and 90.4 µM and 130 µM | – | – | – | – | – | 110 µM and 89.7 µM and 175 µM | 59.9 µM and 12 µM and 55.4 µM | 41.2 µM and 35 µM and 6.05 µM | – | – | – | 27.1 µM and 23.9 µM and 92.2 µM | – | – | 103 µM and 500 µM and 432 µM | –
Cc1ccc2nc(CN(CCN(Cc3nc4ccc(C)cc4[nH]3)Cc3nc4ccc(C)cc4[nH]3)Cc3nc4ccc(C)cc4[nH]3)[nH]c2c1 | 1.71 | – | 2.75 µM | – | 1650 | 3.1 | – | – | 2.6 | 3.14 µM | 3.14 µM | – | 1.44 | – | 1.77 | 3.18 µM | 1.32 | 1.71 | – | –
COc1ccc(/C=C\c2cc(OC)c(OC)c(OC)c2)cc1NC(=O)/C=C/c1cc(OC)c(OC)c(OC)c1 | 0.949 | 7.96 | > 100 µM | > 100 µM | 3150 | > 100 | 2.66 µM | 8.96 | – | > 100 µM | > 100 µM | 77.4 µM | > 100 | 3.83 | 4.67 | > 100 µM | – | 2.64 | > 100 µM | 2.92
CN(C(=O)C12C3C4C1C1C2C3C41C#N)C(C)(C)C (stereo unspecified) | – | – | > 100 µM | > 100 µM | – | > 100 | – | – | > 100 | > 100 µM | > 100 µM | – | – | – | – | > 100 µM | – | – | – | –
CN(C)NC(=O)NC12CC3CC(CC(C3)C1)C2 | – | – | > 100 µM | > 100 µM | – | – | – | > 10 | > 100 | > 100 µM | > 100 µM | – | – | – | – | > 100 µM | – | – | – | –
CSCSCC(CO)NC(=O)/C=C/c1c(C)[nH]c(=O)[nH]c1=O (stereo unspecified) | – | – | > 100 µM | > 100 µM | – | > 100 | – | > 100 | > 100 | > 100 µM | > 100 µM | – | – | – | – | > 100 µM | – | – | – | –
CCOC(=O)C(=O)CC(=O)C(Br)C(Br)c1ccc(Cl)cc1 (stereo unspecified) | – | – | > 100 µM | – | – | 50.7 | – | 62.6 | > 100 | > 100 µM | – | – | – | – | – | > 100 µM | – | – | – | –
Cc1nc2ccccc2c(=O)n1/N=C(\N=Nc1cc(Cl)ccc1Cl)c1ccc(N(C)C)cc1 | – | – | > 100 µM | > 100 µM | – | – | – | 81.8 | – | > 100 µM | > 100 µM | – | – | – | – | – | – | – | – | –
CCOC(=O)Nc1cc2c(c(N)n1)N=C(c1ccc(Cl)cc1Cl)CN2 | – | – | 31.9 µM | 12.7 µM | – | 43.4 | – | – | 36.5 | 22.7 µM | 20.6 µM | 33.1 µM | – | – | – | 2.83 µM | – | – | 21.7 µM | –
CCNC(=O)O/N=C1\CCC2[C@@H]3CC=C4C[C@@H](OC(=O)NCC)CC[C@]4(C)C3CC[C@]12C (stereo partly specified) | – | – | 4.84 µM | 13.7 µM | – | 3.23 | – | 11.6 | 7.35 | 2.62 µM | > 100 µM | – | – | – | – | 13.8 µM | – | – | – | –
C(=C\c1ccc2ccccc2c1Nc1ccccc1)/c1ccccc1 | – | – | > 100 µM | 46.4 µM | – | 49.6 | – | 37.6 | 39.9 | > 72.2 µM | 47.6 µM | – | – | – | – | > 100 µM | – | – | – | –
CCn1c(=O)nc2n(-c3ccc(SC)cc3)c3ccccc3nc-2c1=O | – | – | > 100 µM | – | – | > 100 | – | – | > 100 | > 100 µM | > 100 µM | – | – | – | – | > 100 µM | – | – | – | –
O=C(CC1(O)C(=O)Nc2ccccc21)c1cccc(O)c1 (stereo unspecified) | – | – | > 100 µM | > 100 µM | – | > 100 | – | > 100 | > 100 | > 100 µM | > 100 µM | – | – | – | – | – | – | – | – | –
CC(=O)O[C@H]1CSC[C@@H](OC(C)=O)C1[N+](=O)[O-] (stereo partly specified) | – | – | > 100 µM | > 100 µM | – | 87.7 | – | 36.1 | > 100 | – | > 100 µM | – | – | – | – | > 100 µM | – | – | – | –
COc1cc(O)c(C(=O)C2Cc3ccccc32)c(OC)c1 (stereo unspecified) | – | – | – | > 100 µM | – | > 100 | – | 69.4 | > 100 | > 100 µM | > 100 µM | – | – | – | – | > 100 µM | – | – | – | –
CCOC(=O)C(Oc1ccc(OC)c2c1C(=O)CCC2)c1ccccc1 (stereo unspecified) | – | – | > 100 µM | > 100 µM | – | > 100 | – | – | – | > 100 µM | > 100 µM | – | – | – | – | > 100 µM | – | – | – | –
COc1cc2c3c(c4ccc(O)cc4c2cc1OC)[C@@H](O)[C@@H]1CCCN1C3 | – | – | 0.00625 µM | 0.00188 µM | – | 0.00883 | – | 0.0029 | – | 0.0211 µM | 0.00625 µM | 0.027 µM | – | – | – | 0.00837 µM | – | – | < 0.001 µM | –
O=C(O)CCCCCNCc1cc2cc3c(cc2c2cc(OCc4ccccc4)ccc12)OCO3 | 3.17 | 6.68 | 17.9 µM | 3.48 µM | 1900 | 3.51 | – | – | 8.81 | 13.9 µM | 13.2 µM | 24.1 µM | 4.01 | 1.58 | 1.63 | 3.19 µM | 2.96 | 4.01 | 3.21 µM | 1.68
C#Cc1c(C)c(/C=C/C(C)=C\C(=O)OC)n(C)c1C | – | – | > 100 µM | – | – | > 100 | – | – | – | > 100 µM | > 100 µM | – | – | – | – | > 100 µM | – | – | – | –
CCN(CC)c1ccc(N=Nc2ccc(-c3nc4cccnc4s3)cc2)cc1 | – | – | > 100 µM | > 100 µM | – | > 100 | – | – | 98.9 | > 100 µM | > 100 µM | – | – | – | – | > 100 µM | – | – | – | –
